One may read the IC50 as the concentration at which inhibition is half-maximal. A high value points to a need for much substance.

For six compounds, IC50 and Activity results are on record in ChEMBL document CHEMBL3784916, “Synthesis and anticancer activity of novel fluorinated asiatic acid derivatives” (Eur J Med Chem, 2016).

In data set [1] the test system is HT-29. Kind of data set: Cytotoxicity against human HT-29 cells after 72 hrs by MTT assay. Type of data set: functional, cell-based. Particulars: HT-29, 72 h. (Tetrazolium dyes change colour on reduction, which living cells bring about.)
For data set [2], the system named is HeLa. Put plainly: Cytotoxicity against human HeLa cells after 72 hrs by MTT assay. Type of data set: functional, cell-based.
Data set [3] concerns Jurkat. Put plainly: Cytotoxicity against human Jurkat cells after 72 hrs by XTT assay. Type of data set: functional, cell-based.
Data set [4] concerns PC-3. Kind of data set: Cytotoxicity against human PC3 cells after 72 hrs by MTT assay. The class given is functional, cell-based.
Data set [5] deals with MCF7. Put plainly: Cytotoxicity against human MCF7 cells after 72 hrs by MTT assay. Type of data set: functional, cell-based.
Data set [6] deals with MIA PaCa-2. Put plainly: Cytotoxicity against human MIAPaCa2 cells after 72 hrs by MTT assay. Type of data set: functional, cell-based.
The subject of data set [7] is A-375. Put plainly: Cytotoxicity against human A375 cells after 72 hrs by MTT assay. The class given is functional, cell-based.
Data set [8] deals with BJ. Put plainly: Cytotoxicity against human BJ cells after 72 hrs by MTT assay. The class given is cell-based. Particulars: human, bj.

The structures appear in SMILES notation.

Consider `CC(=O)OC[C@@]1(C)[C@@H]2CC[C@]3(C)[C@H](C[C@@H](F)[C@]45[C@@H]6[C@@H](C)[C@H](C)CC[C@@]6(CC[C@]43C)C(=O)N5C)[C@@]2(C)C[C@@H](OC(C)=O)[C@@H]1OC(C)=O`, for which the results for the IC50 in data set [1] and in data set [2] were 8.5 µM and 2.95 µM, respectively. Moreover, the Activity entry in data set [3], in data set [4], in data set [5], in data set [6], in data set [7] and in data set [8] was “Dose-dependent effect” throughout.
As to `C[C@H]1[C@H](C)CC[C@@]23CC[C@]4(C)[C@](OC2=O)([C@H](F)C[C@@H]2[C@@]5(C)C[C@@H](O)[C@H](O)[C@@](C)(CO)[C@@H]5CC[C@]24C)[C@H]13`, the IC50 in data set [1] worked out at 51.2 µM; in data set [2], 60.2 µM. Also, the Activity entry in data set [3], in data set [4], in data set [5], in data set [6], in data set [7] and in data set [8] was “Dose-dependent effect” each time.
Take `C[C@H]1[C@H](C)CC[C@@]23CC[C@]4(C)[C@](OC2=O)([C@H](F)C[C@@H]2[C@@]5(C)C(C=O)=C[C@@](C)(COC(=O)n6ccnc6)[C@@H]5CC[C@]24C)[C@H]13`: the 50% inhibitory concentration (IC50) is 2.37 µM in data set [1] and 1.62 µM in data set [2]. Further, the Activity entry in data set [3], in data set [4], in data set [5], in data set [6], in data set [7] and in data set [8] was “Dose-dependent effect” throughout.
For `CC(=O)OC[C@]1(C)C=C(C=O)[C@@]2(C)[C@H]1CC[C@]1(C)[C@@H]2C[C@@H](F)[C@]23OC(=O)[C@@]4(CC[C@@H](C)[C@H](C)[C@H]42)CC[C@]31C`, the half-inhibitory concentration (IC50) in data set [1] is 2.02 µM; in data set [2], 1.4 µM. The Activity result in data set [3], in data set [4], in data set [5], in data set [6], in data set [7] and in data set [8] was “Dose-dependent effect” in each case.
Turning to `CC(=O)OC[C@@]1(C)[C@@H]2CC[C@]3(C)[C@H](C[C@@H](F)[C@]45OC(=O)[C@@]6(CC[C@@H](C)[C@H](C)[C@H]64)CC[C@]53C)[C@@]2(C)C[C@@H](OC(C)=O)[C@@H]1OC(C)=O`, the values for the 50% inhibitory concentration (IC50) in data set [1] and in data set [2] were 6.38 µM and 4.43 µM, respectively. Also, the Activity entry in data set [3], in data set [4], in data set [5], in data set [6], in data set [7] and in data set [8] was “Dose-dependent effect” each time.
Regarding `C[C@H]1[C@H](C)CC[C@@]23CC[C@]4(C)[C@](OC2=O)([C@H](F)C[C@@H]2[C@@]5(C)C(C=O)=C[C@@](C)(CO)[C@@H]5CC[C@]24C)[C@H]13`, the values for the IC50 in data set [1] and in data set [2] were 1.28 µM and 1.08 µM, respectively. Further, the Activity entry in data set [3], in data set [4], in data set [5], in data set [6], in data set [7] and in data set [8] was “Dose-dependent effect” in each case.
